Test results as given in PMC9936582, “Sulfamate Acetamides as Self-Immolative Electrophiles for Covalent Ligand-Directed Release Chemistry” (Journal of the American Chemical Society, 2023).

Tested on: Mino cells
Test: Competitive pull-down proteomics with ibrutinib alkyne probe in Mino cells
Type: cell-based, human
Conditions: 1 µM compound 1 h
Procedure: (10 μM). This was followed by a reaction with biotin-azide using CuAAC, enrichment of the labeled proteins, and their quantification by tryptic digestion and LC/MS/MS analysis.
The samples were then precipitated with methanol: chloroform (1 mL of methanol, 250 μL of chloroform, and 750 μL of water), washed with 1 mL of methanol, and air-dried. The samples were solubilized and bound to streptavidin agarose beads in PBS for 3 h at 25 °C. The beads were washed, centrifuged, and resuspended in Tris 50 mM pH 8 and transferred to a clean Eppendorf tube. After this, the bound proteins were eluted by boiling with 5% SDS then reduced with DTT, alkylated with iodoacetamide, and digested with trypsin. The samples were run on LC/MS/MS. The detailed procedure is available in the Supplementary Information. The mass spectrometry proteomics data have been deposited to the ProteomeXchange Consortium via the PRIDE[67] partner repository with the dataset identifiers PXD038301 and PXD038375.
400 µL of 0.1% IGEPAL/PBS were added, and the beads were washed 3 times with 0.1% IGEPAL/PBS, 3 times PBS and 3 times water. The peptides were eluted by incubation with 200 µL of 50% acetonitrile + 0.1% TFA for 5 min, followed by two more portions of 100 µL of 50% acetonitrile + 0.1% TFA. The samples were dried by speedvac, and further purified using Oasis desalting columns (Waters), after which they were dried and run on the instrument.
Pull-down samples preparation […]
incubation with 10 μM “probe 4” for another hour. The samples were prepared in quadruplicates. The cells were washed with cold PBS, from the flasks and frozen. Then, each sample was lysed in 200 μL of […]
The protein in the supernatant was quantified using BCA. For each sample, 250 μL of 1.7 mg/mL was prepared. At this point, 5 μL of 5 mM biotin azide and 9 μL of 100 mM CuSO4/THPTA complex were added. The click reaction was initiated by the addition of 7.5 μL of 150 mM sodium ascorbate, and the samples are incubated at room temperature for 1 h. The samples were then precipitated with methanol/chloroform (1 mL methanol, 250 μL chloroform, 750 μL water), washed with 1 mL of methanol, and air-dried. […]
and heated to 95 °C for 5 min. The samples were then diluted to 1.5 mL with PBS, and 50 μL of streptavidin agarose beads, prewashed with 0.2% SDS in PBS, was added, followed by 3 h incubation at room temperature. Following the incubation, the beads were centrifuged at 2000g for 2 min and washed four times with the following buffers (4 mL in each wash): 2% SDS; 0.1% sodium deoxycholate, 1% Triton X-100, 0.5 M NaCl, 1 mM EDTA, 50 mM HEPES pH = 7.5; 0.25 M NaCl, 0.5% IGEPAL, 0.5% sodium deoxycholate, 1 mM EDTA, 10 mM Tris pH = 8.1; 50 mM Tris pH = 7.4, 50 mM NaCl. […]
with heating to 95 °C for 6 min and occasional vortexing. Finally, the beads were spun down (2 min 2000g) and 80 μL of supernatant was removed to separate tubes. […]
had cooled, 4 μL of iodoacetamide (0.2 M) were added, and the samples were incubated in the dark for 40 min at room temperature. […]
samples were diluted 6-fold with 90% methanol + 50 mM ammonium bicarbonate. The samples were then […]
loaded on S-trap micro columns (Protify), and the columns were washed three times with 150 μL of 90% methanol + 50 mM ammonium bicarbonate. Then, 20 μL of 0.05 μg/μL of trypsin in 50 mM ammonium bicarbonate was added to the columns and the samples were incubated at 47 °C for 90 min. Then, 40 μL of 50 mM ammonium bicarbonate was added, followed by centrifugation and addition of 1 μL of 0.5 μg/μL trypsin to the eluate, which was incubated at 37 °C overnight. The column itself was then eluted using 40 μL of 0.2% formic acid and 40 μL 0.2% formic acid in 50% acetonitrile into a separate tube, which was kept at 4 °C. The two eluates were then combined and evaporated. The samples were further desalted using […]

In the case of `Nc1ncnc2c1c(-c1ccc(Oc3ccccc3)cc1)nn2[C@@H]1CCCN(C(=O)COS(=O)(=O)NCc2ccccc2)C1` [3d], the “Log2(Fold Change)” value (4F2_HUMAN) is reported as -0.3468, the “Log2(Fold Change)” value (AATM_HUMAN) is reported as 1.62 and the “Log2(Fold Change)” value (ACSF3_HUMAN) is reported as 0.1421. For the same molecule, the “Log2(Fold Change)” value (AHNK_HUMAN) was 2.176, the “Log2(Fold Change)” value (ALG1_HUMAN) was -0.2223 and the “Log2(Fold Change)” value (ANXA1_HUMAN) was 2.107. The “Log2(Fold Change)” value (APEX1_HUMAN) was 0.5549, the “Log2(Fold Change)” value (ARP3_HUMAN;ARP3B_HUMAN;ARP3C_HUMAN) was 0.3683 and the “Log2(Fold Change)” value (AT1A1_HUMAN;AT1A2_HUMAN;AT1A4_HUMAN;ATP4A_HUMAN;AT12A_HUMAN) was 0.9797. The “Log2(Fold Change)” value (ATP5H_HUMAN) was 0.3377, the “Log2(Fold Change)” value (ATPK_HUMAN) was 0.2949 and the “Log2(Fold Change)” value (ATPO_HUMAN) was -0.283. For the same molecule, the “Log2(Fold Change)” value (ATX10_HUMAN) was 0.3503, the “Log2(Fold Change)” value (BST2_HUMAN) was 0.9798 and the “Log2(Fold Change)” value (BZW1_HUMAN) was 0.5267. The “Log2(Fold Change)” value (C1TM_HUMAN) was -0.1466, the “Log2(Fold Change)” value (CALL5_HUMAN) was -0.1469 and the “Log2(Fold Change)” value (CD20_HUMAN) was -0.02247. For the same molecule, the “Log2(Fold Change)” value (CD38_HUMAN) was 0.01573, the “Log2(Fold Change)” value (CLCA_HUMAN) was -0.02966 and the “Log2(Fold Change)” value (CLH1_HUMAN;CLH2_HUMAN) was 2.15. For the same molecule, the “Log2(Fold Change)” value (COX2_HUMAN) was -0.2094, the “Log2(Fold Change)” value (CRERF_HUMAN) was -0.7334 and the “Log2(Fold Change)” value (DD19B_HUMAN;DD19A_HUMAN) was -0.05233. For the same molecule, the “Log2(Fold Change)” value (DDX3X_HUMAN;DDX3Y_HUMAN;DDX4_HUMAN) was 1.382, the “Log2(Fold Change)” value (DNJC7_HUMAN) was 0.6525 and the “Log2(Fold Change)” value (DSC1_HUMAN) was -0.7969. For the same molecule, the “Log2(Fold Change)” value (EF1B_HUMAN) was -0.6176, the “Log2(Fold Change)” value (EPIPL_HUMAN) was 0.9511 and the “Log2(Fold Change)” value (FPPS_HUMAN) was -0.6242. The “Log2(Fold Change)” value (GCR_HUMAN) was 0.4122, the “Log2(Fold Change)” value (GLYM_HUMAN;GLYC_HUMAN) was 1.206 and the “Log2(Fold Change)” value (GSDMA_HUMAN) was 0.09253. The “Log2(Fold Change)” value (HMCS1_HUMAN) was 0.6183, the “Log2(Fold Change)” value (HXK2_HUMAN;HXK3_HUMAN) was 0.4444 and the “Log2(Fold Change)” value (IF4A1_HUMAN) was 0.3836. For the same molecule, the “Log2(Fold Change)” value (IF4A3_HUMAN) was 0.3127, the “Log2(Fold Change)” value (IF4H_HUMAN) was 0.66 and the “Log2(Fold Change)” value (IGLL5_HUMAN;IGL1_HUMAN;IGLC1_HUMAN) was -2.924. The “Log2(Fold Change)” value (LAPM5_HUMAN) was 0.7164, the “Log2(Fold Change)” value (LAT1_HUMAN) was -0.2987 and the “Log2(Fold Change)” value (LMNA_HUMAN) was 1.21. The “Log2(Fold Change)” value (MATR3_HUMAN) was 1.3535, the “Log2(Fold Change)” value (MBB1A_HUMAN) was 0.0529 and the “Log2(Fold Change)” value (MCCA_HUMAN) was -0.3018. For the same molecule, the “Log2(Fold Change)” value (MIC19_HUMAN) was 0.1905, the “Log2(Fold Change)” value (MP2K7_HUMAN) was 1.5282 and the “Log2(Fold Change)” value (NCEH1_HUMAN) was 1.226. The “Log2(Fold Change)” value (NT5D1_HUMAN) was 2.611, the “Log2(Fold Change)” value (NUCL_HUMAN) was 0.5701 and the “Log2(Fold Change)” value (OTUB1_HUMAN) was 0.2048. For the same molecule, the “Log2(Fold Change)” value (P121C_HUMAN;P121A_HUMAN) was 0.4168, the “Log2(Fold Change)” value (PARK7_HUMAN) was 1.57 and the “Log2(Fold Change)” value (PCKGM_HUMAN) was 0.1766. For the same molecule, the “Log2(Fold Change)” value (PEBP1_HUMAN) was -0.8247, the “Log2(Fold Change)” value (PEPL_HUMAN) was 0.8796 and the “Log2(Fold Change)” value (PFKAL_HUMAN) was -0.4948. For the same molecule, the “Log2(Fold Change)” value (PGK1_HUMAN;PGK2_HUMAN) was 0.5127, the “Log2(Fold Change)” value (PIP_HUMAN) was 0.8481 and the “Log2(Fold Change)” value (PLAK_HUMAN;CTNB1_HUMAN) was -0.4311. For the same molecule, the “Log2(Fold Change)” value (POF1B_HUMAN) was 0.5955, the “Log2(Fold Change)” value (PSA3_HUMAN) was 0.515 and the “Log2(Fold Change)” value (PSB8_HUMAN) was 0.8443. The “Log2(Fold Change)” value (RAB1A_HUMAN;RAB1B_HUMAN;RAB1C_HUMAN) was 0.5794, the “Log2(Fold Change)” value (RANG_HUMAN;IPKB_HUMAN) was -0.3375 and the “Log2(Fold Change)” value (RAP1B_HUMAN;RAP1A_HUMAN;RP1BL_HUMAN;RAB3D_HUMAN) was 0.1236. The “Log2(Fold Change)” value (RFTN1_HUMAN) was 0.055, the “Log2(Fold Change)” value (RL13A_HUMAN;R13P3_HUMAN) was 0.2889 and the “Log2(Fold Change)” value (RL18_HUMAN) was 0.278. For the same molecule, the “Log2(Fold Change)” value (RLA1_HUMAN) was 1.604, the “Log2(Fold Change)” value (RN3P2_HUMAN) was -0.7545 and the “Log2(Fold Change)” value (RS28_HUMAN) was 1.706. For the same molecule, the “Log2(Fold Change)” value (RTN4_HUMAN) was -0.003108, the “Log2(Fold Change)” value (RUVB2_HUMAN) was 0.8199 and the “Log2(Fold Change)” value (S38A1_HUMAN) was 0.5709. The “Log2(Fold Change)” value (S61A1_HUMAN;S61A2_HUMAN) was 0.03923, the “Log2(Fold Change)” value (SAE2_HUMAN) was 0.8525 and the “Log2(Fold Change)” value (SATT_HUMAN) was -0.2942. The “Log2(Fold Change)” value (SCRB1_HUMAN) was 0.8748, the “Log2(Fold Change)” value (SIAT1_HUMAN) was 0.1522 and the “Log2(Fold Change)” value (SO4A1_HUMAN) was 1.533. The “Log2(Fold Change)” value (SPB4_HUMAN) was 2.369, the “Log2(Fold Change)” value (SPB12_HUMAN) was -0.3346 and the “Log2(Fold Change)” value (SSDH_HUMAN) was 1.965. For the same molecule, the “Log2(Fold Change)” value (SUCB1_HUMAN) was 0.8691, the “Log2(Fold Change)” value (TAP1_HUMAN) was -1.533 and the “Log2(Fold Change)” value (TAP2_HUMAN;ABCB8_HUMAN;ABCBA_HUMAN) was 0.8469. The “Log2(Fold Change)” value (TBB2B_HUMAN;TBB2A_HUMAN) was -0.1459, the “Log2(Fold Change)” value (TSN_HUMAN) was -0.1715 and the “Log2(Fold Change)” value (TX264_HUMAN) was 0.3926. For the same molecule, the “Log2(Fold Change)” value (UB2V2_HUMAN;UB2V1_HUMAN) was 1.306, the “Log2(Fold Change)” value (UBP5_HUMAN) was -0.01896 and the “Log2(Fold Change)” value (UBP14_HUMAN) was 1.116. The “Log2(Fold Change)” value (URP2_HUMAN) was 0.2486, the “Log2(Fold Change)” value (USMG5_HUMAN) was 0.3682 and the “Log2(Fold Change)” value (VDAC1_HUMAN) was 0.3637. The “Log2(Fold Change)” value (VEZA_HUMAN) was -0.126, the “Log2(Fold Change)” value (XPO2_HUMAN) was 0.1341 and the “Log2(Fold Change)” value (XPO5_HUMAN) was 0.1456. The “Log2(Fold Change)” value (ZDHC8_HUMAN) was -1.527.
